“And” between values parts separate entries of the source, which are not always exact repeats. Equal entries are not always repeated. Where two headings read alike, the source gives them in different places.
How the values were obtained:
Assay type in all cases: cell-based, Plasmodium falciparum
[1] = system: NF54^G358S-2 parasites; assay: P. falciparum proliferation assay (72 h, flow cytometry, SYBR Green I/MitoTracker); details: for FC (IC50) / FC (IC90): NF54G358S-2 compared to NF54WT
Method: (§1) For the NF54-based lines and Dd2-B2-PfATP4^G358S and its parent, assays were initiated with cultures containing predominantly ring-stage parasites with a parasitaemia of 0.3% and a haematocrit of 1%. All assays using NF54 were performed in culture media containing 10% O + human serum. The duration of the assays was 72 h and the concentration of DMSO was <0.5% (v/v). Serial dilutions of the test compounds were performed using a Tecan D300e digital dispenser, with parasite cultures added manually. Parasite survival was assessed by flow cytometry on an Intellicyt iQue3 (Essen Bioscience), with 1× SYBR Green I (Invitrogen) and 200 nM MitoTracker Deep Red FM (Invitrogen) used to stain the nucleus and the mitochondria in live parasites, respectively. The gating strategy used to quantify parasite survival, performed using FlowJo version 10 (FlowJo LLC.), is illustrated in Supplementary Fig. 9. IC50 and IC90 values were calculated by linear interpolation of the dose-response data.

[2] = system: NF54^G358S-1 parasites; assay: as above; details: for FC (IC50) / FC (IC90): NF54G358S-1 compared to NF54WT
Method: as §1

[3] = system: NF54^CTL parasites; assay: as above; details: for FC (IC50) / FC (IC90): NF54CTL compared to NF54WT
Method: as §1

[4] = system: NF54^WT parasites; assay: microbe, parasite or virus in culture; details: for FC (IC50) / FC (IC90): NF54WT, reference line
Method: as §1

[5] = system: parasite lines with a G358S mutation in PfATP4; assay: P. falciparum proliferation assays, statements on all lines with the G358S mutation; details: G358S lines vs PfATP4 wild-type controls
Method: as §1, with “Two types of parasite proliferation assays were employed in this study, with both yielding highly consistent results. For” for “For”
For experiments with all other parasites, the effects of compounds of interest on parasite proliferation was measured in 96-well plates containing serial dilutions of the compounds in culture medium, with a fluorescent DNA-intercalating dye used to detect surviving parasites. The assays were initiated with erythrocytes infected with predominantly ring-stage parasites, and the starting parasitaemia and haematocrit were both 1%. […] Fluorescence was measured using a FLUOstar OPTIMA plate reader (BMG LABTECH), with OPTIMA version 2.20R2 and MARS Data Analysis Software version 3.01 R2 (BMG LABTECH).

[6] = NF54G358S-2 parasites, individual experiments, read-out: IC50 values
[7] = NF54G358S-2 parasites, individual experiments, read-out: IC90 values
[8] = Plasmodium falciparum, NF54, NF54G358S-2 parasites, individual experiments, read-out: IC50 values
[9] = Plasmodium falciparum, NF54, NF54G358S-2 parasites, individual experiments, read-out: IC90 values
[10] = Plasmodium falciparum, NF54, NF54G358S-2 parasites, mean of the experiments, read-out: IC50 values, MEAN
[11] = Plasmodium falciparum, NF54, NF54G358S-2 parasites, mean of the experiments, read-out: IC90 values, MEAN
[12] = NF54G358S-1 parasites, individual experiments, read-out: IC50 values
[13] = NF54G358S-1 parasites, individual experiments, read-out: IC90 values
[14] = Plasmodium falciparum, NF54, NF54G358S-1 parasites, individual experiments, read-out: IC50 values
[15] = Plasmodium falciparum, NF54, NF54G358S-1 parasites, individual experiments, read-out: IC90 values
[16] = Plasmodium falciparum, NF54, NF54G358S-1 parasites, mean of the experiments, read-out: IC50 values, MEAN
[17] = Plasmodium falciparum, NF54, NF54G358S-1 parasites, mean of the experiments, read-out: IC90 values, MEAN
[18] = NF54CTL parasites, individual experiments, read-out: IC50 values
[19] = NF54CTL parasites, individual experiments, read-out: IC90 values
[20] = Plasmodium falciparum, NF54, NF54CTL parasites, individual experiments, read-out: IC50 values
[21] = Plasmodium falciparum, NF54, NF54CTL parasites, individual experiments, read-out: IC90 values
[22] = Plasmodium falciparum, NF54, NF54CTL parasites, mean of the experiments, read-out: IC50 values, MEAN
[23] = Plasmodium falciparum, NF54, NF54CTL parasites, mean of the experiments, read-out: IC90 values, MEAN
[24] = NF54WT parasites, individual experiments, read-out: IC50 values
[25] = NF54WT parasites, individual experiments, read-out: IC90 values
[26] = Plasmodium falciparum, NF54, NF54WT parasites, mean of the experiments, read-out: IC50 values, MEAN
[27] = Plasmodium falciparum, NF54, NF54WT parasites, mean of the experiments, read-out: IC90 values, MEAN

| SMILES | FC (IC50) [1] | FC (IC90) [1] | IC50 [1, 6] | IC90 [1, 7] | IC50 [1, 8] | IC90 [1, 9] | IC50 [1, 10] | IC90 [1, 11] | FC (IC50) [2] | FC (IC90) [2] | IC50 [2, 12] | IC90 [2, 13] | IC50 [2, 14] | IC90 [2, 15] | IC50 [2, 16] | IC90 [2, 17] | FC (IC50) [3] | FC (IC90) [3] | IC50 [3, 18] | IC90 [3, 19] | other results |
| --- | --- | --- | --- | --- | --- | --- | --- | --- | --- | --- | --- | --- | --- | --- | --- | --- | --- | --- | --- | --- | --- |
| Clc1ccc2c(N3CCN(CCCN4CCN(c5ccnc6cc(Cl)ccc56)CC4)CC3)ccnc2c1 [Piperaquine] | 0.9 fold | 1.1 fold | 24 nM and 13.5 nM and 13.3 nM | 48.2 nM and 27.4 nM and 26.7 nM | 21.3 nM | 30.8 nM | 18 nM | 33.3 nM | 0.9 fold | 1.1 fold | 22.2 nM and 14.8 nM and 12.9 nM | 43.7 nM and 27.9 nM and 26.4 nM | 20.8 nM | 34.2 nM | 17.7 nM | 33 nM | 0.9 fold | 1.2 fold | 20.9 nM and 14.5 nM and 11.8 nM | 37.3 nM and 28.1 nM and 26.3 nM | IC50 [3, 20]: 21.9 nM; IC90 [3, 21]: 45.9 nM; IC50 [3, 22]: 17.3 nM; IC90 [3, 23]: 34.4 nM; IC50 [4, 24]: 22 nM and 14.7 nM and 19.4 nM; IC90 [4, 25]: 29.8 nM and 27.5 nM and 28.8 nM; FC (IC50) [4]: 1.0 fold; FC (IC90) [4]: 1.0 fold; IC50 ([4]; Plasmodium falciparum, NF54, NF54WT parasites, individual experiments, read-out: IC50 values): 22.7 nM; IC90 ([4]; Plasmodium falciparum, NF54, NF54WT parasites, individual experiments, read-out: IC90 values): 30 nM; IC50 [4, 26]: 19.7 nM; IC90 [4, 27]: 29 nM; effect of the G358S mutation in PfATP4 on parasite susceptibility [5]: no effect |
| COc1ccc2nc3cc(Cl)ccc3c(Nc3cc(CN4CCCC4)c(O)c(CN4CCCC4)c3)c2n1 [Pyronaridine] | 1.2 fold | 1.1 fold | 1.86 nM and 1.73 nM and 2.02 nM | 2.89 nM and 2.85 nM and 2.91 nM | 1.25 nM | 2.63 nM | 1.7 nM | 2.82 nM | 1.3 fold | 1.1 fold | 1.77 nM and 2.02 nM and 2.17 nM | 2.9 nM and 3.07 nM and 3.12 nM | 1.24 nM | 2.64 nM | 1.8 nM | 2.93 nM | 1.2 fold | 1.1 fold | 1.43 nM and 1.8 nM and 1.81 nM | 2.8 nM and 2.91 nM | IC90 ([1]; Plasmodium falciparum, NF54, NF54G358S-2, 10% human serum, read-out: IC90 ± SEM): 2.8 ± 0.1 nM; IC50 [3, 20]: 1.47 nM; IC90 [3, 21]: 2.85 nM; IC50 [3, 22]: 1.6 nM; IC90 [3, 23]: 2.86 nM; IC90 ([3]; Plasmodium falciparum, NF54, NF54CTL, 10% human serum, read-out: IC90 ± SEM): 2.9 ± 0.02 nM; IC50 [4, 24]: 0.91 nM and 1.08 nM and 1.42 nM and 2.14 nM; IC90 [4, 25]: 1.44 nM and 2.14 nM and 2.78 nM and 4.07 nM; FC (IC50) [4]: 1.0 fold; FC (IC90) [4]: 1.0 fold; IC50 [4, 26]: 1.4 nM; IC90 [4, 27]: 2.61 nM; IC90 ([4]; Plasmodium falciparum, NF54, NF54WT, 10% human serum, read-out: IC90 ± SEM): 2.6 ± 0.6 nM; effect of the G358S mutation in PfATP4 on parasite susceptibility [5]: no effect |
